Several values for one entry are separate records, joined by “and”; a condition that tells them apart may be missing. Equal values may be shown once. Inconclusive results and toxic doses are left out.
System: P388 leukemia ip, CD2F1 mice, survival T/C
Test: NCI In Vivo Anticancer Drug Screen. Data for tumor model P388 Leukemia (intraperitoneal) in CD2F1 (CDF1) mice
Details: endpoint: median survival time, higher = longer survival
In short: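 Mice carrying the transplanted tumor received test compound or vehicle. Survival was recorded in each group, and the value is the treated-group measurement divided by that of the vehicle-treated control group.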

[1] = dose: 60.0 mg/kg/injection, schedule: Q01DX005 (ip), vehicle: saline with Tween-80
[2] = dose: 120.0 mg/kg/injection, schedule: Q01DX005 (ip), vehicle: saline with Tween-80
[3] = dose: 50.0 mg/kg/injection, schedule: Q01DX009 (ip), vehicle: saline with Tween-80
[4] = dose: 100.0 mg/kg/injection, schedule: Q01DX009 (ip), vehicle: saline with Tween-80
[5] = dose: 50.0 mg/kg/injection, schedule: Q01DX005 (ip), vehicle: saline with Tween-80
[6] = dose: 100.0 mg/kg/injection, schedule: Q01DX005 (ip), vehicle: saline with Tween-80
[7] = dose: 200.0 mg/kg/injection, schedule: Q01DX005 (ip), vehicle: saline with Tween-80
[8] = dose: 240.0 mg/kg/injection, schedule: Q01DX005 (ip), vehicle: saline with Tween-80
[9] = dose: 50.0 mg/kg/injection, schedule: Q01DX005 (ip), vehicle: Klucel (hydroxypropylcellulose) (HPC)
[10] = dose: 100.0 mg/kg/injection, schedule: Q01DX005 (ip), vehicle: Klucel (hydroxypropylcellulose) (HPC)
[11] = dose: 50.0 mg/kg/injection, schedule: Q01DX009 (ip), vehicle: Klucel (hydroxypropylcellulose) (HPC)
[12] = dose: 100.0 mg/kg/injection, schedule: Q01DX009 (ip), vehicle: Klucel (hydroxypropylcellulose) (HPC)
[13] = dose: 200.0 mg/kg/injection, schedule: Q01DX009 (ip), vehicle: Klucel (hydroxypropylcellulose) (HPC)

Cc1cc(N=[N+]=[N-])c2ccccc2n1
T/C [1]: 105 % of control | T/C [2]: 94 % of control

CCn1c(Cl)c(/C=C2/N=C(c3ccccc3)OC2=O)c2ccccc21
T/C (dose: 25.0 mg/kg/injection, schedule: Q01DX001 (ip), vehicle: saline with Tween-80): 95 % of control | T/C (dose: 50.0 mg/kg/injection, schedule: Q01DX001 (ip), vehicle: saline with Tween-80): 86 % of control | T/C (dose: 100.0 mg/kg/injection, schedule: Q01DX001 (ip), vehicle: Klucel (hydroxypropylcellulose) (HPC)): 92 % of control | T/C (dose: 400.0 mg/kg/injection, schedule: Q01DX001 (ip), vehicle: Klucel (hydroxypropylcellulose) (HPC)): 86 % of control

CCOC(=O)C(C)(C)CN(CCCN(C)C)CC(C)(C)C(=O)OCC
T/C [3]: 105 % of control | T/C [4]: 115 % of control

O=C1c2ccccc2C(=O)N1CCCC[P+](c1ccccc1)(c1ccccc1)c1ccccc1
T/C (dose: 1.5 mg/kg/injection, schedule: Q01DX009 (ip), vehicle: other): 112 % of control | T/C (dose: 3.0 mg/kg/injection, schedule: Q01DX009 (ip), vehicle: other): 116 % of control | T/C (dose: 6.0 mg/kg/injection, schedule: Q01DX009 (ip), vehicle: other): 116 % of control | T/C (dose: 9.0 mg/kg/injection, schedule: Q01DX009 (ip), vehicle: other): 121 % of control

O=C1SCCC1n1c(=O)c1=O (configuration not stated)
T/C (dose: 25.0 mg/kg/injection, schedule: Q01DX005 (ip), vehicle: saline with Tween-80): 100 % of control | T/C [5]: 98 % of control | T/C [1]: 94 % of control | T/C [6]: 105 % of control | T/C [2]: 99 % of control | T/C [7]: 96 % of control | T/C [8]: 90 % of control | T/C (dose: 400.0 mg/kg/injection, schedule: Q01DX005 (ip), vehicle: saline with Tween-80): 99 % of control

O=C1c2ccccc2C(=O)N1C(=NCc1ccccc1)c1ccccc1
T/C (dose: 100.0 mg/kg/injection, schedule: Q04DX003 (ip), vehicle: Klucel (hydroxypropylcellulose) (HPC)): 104 % of control | T/C (dose: 200.0 mg/kg/injection, schedule: Q04DX003 (ip), vehicle: Klucel (hydroxypropylcellulose) (HPC)): 104 % of control | T/C (dose: 400.0 mg/kg/injection, schedule: Q04DX003 (ip), vehicle: Klucel (hydroxypropylcellulose) (HPC)): 109 % of control

COc1cc(C2c3cc4c(cc3C(O)C(CO)C2CO)OCO4)cc(OC)c1OC (configuration not stated)
T/C (dose: 11.0 mg/kg/injection, schedule: Q01DX009 (ip), vehicle: saline with Tween-80): 118 % of control | T/C (dose: 25.0 mg/kg/injection, schedule: Q04DX003 (ip), vehicle: saline with Tween-80): 115 % of control | T/C (dose: 37.5 mg/kg/injection, schedule: Q01DX009 (ip), vehicle: saline with Tween-80): 150 % of control | T/C [9]: 103 % of control | T/C [10]: 97 % of control | T/C (dose: 100.0 mg/kg/injection, schedule: Q01DX009 (ip), vehicle: saline sonified): 165 % of control | T/C (dose: 100.0 mg/kg/injection, schedule: Q04DX003 (ip), vehicle: saline with Tween-80): 155 % of control | T/C (dose: 200.0 mg/kg/injection, schedule: Q01DX005 (ip), vehicle: Klucel (hydroxypropylcellulose) (HPC)): 94 % of control | T/C (dose: 200.0 mg/kg/injection, schedule: Q01DX009 (ip), vehicle: saline sonified): 195 % of control | T/C (dose: 264.0 mg/kg/injection, schedule: Q04DX003 (ip), vehicle: saline with Tween-80): 154 % of control | T/C (dose: 400.0 mg/kg/injection, schedule: Q01DX009 (ip), vehicle: saline sonified): 95 % of control | T/C (dose: 400.0 mg/kg/injection, schedule: Q04DX003 (ip), vehicle: saline with Tween-80): 163 % of control

CC1C(C(=O)NCC(c2ccccc2)c2ccccc2)CC2CCCCN21 (configuration not stated)
T/C (dose: 15.0 mg/kg/injection, schedule: Q01DX005 (ip), vehicle: saline with Tween-80): 96 % of control | T/C (dose: 30.0 mg/kg/injection, schedule: Q01DX005 (ip), vehicle: saline with Tween-80): 92 % of control | T/C [1]: 91 % of control and 92 % of control

CSCC1COC(=O)N1 (configuration not stated)
T/C (dose: 100.0 mg/kg/injection, schedule: Q04DX002 (ip), vehicle: distilled water + alcohol): 100 % of control | T/C (dose: 200.0 mg/kg/injection, schedule: Q04DX002 (ip), vehicle: distilled water + alcohol): 106 % of control | T/C (dose: 400.0 mg/kg/injection, schedule: Q04DX002 (ip), vehicle: distilled water + alcohol): 100 % of control

O=C(NO)C1CCCCC1O (configuration not stated)
T/C (dose: 12.5 mg/kg/injection, schedule: Q04DX003 (ip), vehicle: saline): 100 % of control | T/C (dose: 25.0 mg/kg/injection, schedule: Q04DX003 (ip), vehicle: saline): 100 % of control | T/C (dose: 50.0 mg/kg/injection, schedule: Q04DX003 (ip), vehicle: saline): 110 % of control | T/C (dose: 400.0 mg/kg/injection, schedule: Q04DX003 (ip), vehicle: saline): 110 % of control

O=[N+]([O-])c1ccccc1N/N=C\c1c(Cl)[nH]c2ccccc12
T/C [9]: 90 % of control | T/C [10]: 95 % of control | T/C (dose: 100.0 mg/kg/injection, schedule: Q04DX002 (ip), vehicle: Klucel (hydroxypropylcellulose) (HPC)): 90 % of control | T/C (dose: 200.0 mg/kg/injection, schedule: Q04DX002 (ip), vehicle: Klucel (hydroxypropylcellulose) (HPC)): 91 % of control | T/C (dose: 400.0 mg/kg/injection, schedule: Q04DX002 (ip), vehicle: Klucel (hydroxypropylcellulose) (HPC)): 95 % of control

O=C(Nc1ccc(Cl)c(Cl)c1)C1C(=O)C(=O)N(c2ccc(Cl)c(Cl)c2)C1=O (configuration not stated)
T/C [11]: 97 % of control | T/C [1]: 101 % of control | T/C [12]: 109 % of control | T/C [2]: 100 % of control | T/C [13]: 103 % of control | T/C [8]: 103 % of control

C/C(=N\NC(=S)N1CCCC1)c1cccc(C)n1
T/C (dose: 12.5 mg/kg/injection, schedule: Q01DX005 (ip), vehicle: saline + Tween-80 + alcohol): 104 % of control and 106 % of control | T/C (dose: 25.0 mg/kg/injection, schedule: Q01DX005 (ip), vehicle: saline + Tween-80 + alcohol): 108 % of control and 113 % of control | T/C (dose: 50.0 mg/kg/injection, schedule: Q01DX005 (ip), vehicle: saline + Tween-80 + alcohol): 122 % of control

Cn1cnc([N+](=O)[O-])c1Sc1ncnc2nc[nH]c12
T/C (dose: 216.0 mg/kg/injection, schedule: Q01DX001 (ip), vehicle: saline with Tween-80): 106 % of control and 122 % of control | T/C (dose: 360.0 mg/kg/injection, schedule: Q01DX001 (ip), vehicle: saline with Tween-80): 118 % of control | T/C (dose: 600.0 mg/kg/injection, schedule: Q01DX001 (ip), vehicle: saline with Tween-80): 108 % of control and 79 % of control

S=C1SCN(C2CCCCC2)CN1C1CCCCC1
T/C [12]: 100 % of control | T/C [13]: 105 % of control | T/C (dose: 400.0 mg/kg/injection, schedule: Q01DX009 (ip), vehicle: Klucel (hydroxypropylcellulose) (HPC)): 107 % of control

CC1(NC(=O)C23CC4CC(CC(C4)C2)C3)CCC(C(C)(C)NC(=O)C23CC4CC(CC(C4)C2)C3)CC1 (configuration not stated)
T/C [5]: 88 % of control | T/C [6]: 88 % of control | T/C [7]: 86 % of control

C(=C\c1cc2ccc(C3=NCCN3)cc2o1)/c1cc2ccc(C3=NCCN3)cc2o1
T/C (dose: 12.5 mg/kg/injection, schedule: Q04DX003 (ip), vehicle: suspension in saline): 107 % of control | T/C (dose: 25.0 mg/kg/injection, schedule: Q04DX003 (ip), vehicle: suspension in saline): 114 % of control | T/C (dose: 50.0 mg/kg/injection, schedule: Q04DX003 (ip), vehicle: suspension in saline): 106 % of control | T/C (dose: 100.0 mg/kg/injection, schedule: Q04DX003 (ip), vehicle: suspension in saline): 122 % of control

CC(C)C(Nc1ncnc2nc[nH]c12)C(=O)O (configuration not stated)
T/C [5]: 102 % of control | T/C [6]: 102 % of control | T/C [7]: 103 % of control

CC(C)(C)c1cc(C2C(C#N)C(=O)NC(=O)C2C#N)cc(C(C)(C)C)c1O (configuration not stated)
T/C [11]: 103 % of control | T/C [12]: 100 % of control | T/C [13]: 94 % of control

C1CCN2CC3CCCN4CCCC(C2C1)C34 (configuration not stated)
T/C (dose: 6.2 mg/kg/injection, schedule: Q01DX007 (ip), vehicle: carboxymethylcellulose (CMC)): 91 % of control and 100 % of control | T/C (dose: 12.5 mg/kg/injection, schedule: Q01DX007 (ip), vehicle: carboxymethylcellulose (CMC)): 91 % of control | T/C (dose: 25.0 mg/kg/injection, schedule: Q01DX007 (ip), vehicle: carboxymethylcellulose (CMC)): 91 % of control

O=C1c2ccccc2CCC12OC2c1ccncc1 (configuration not stated)
T/C (dose: 25.0 mg/kg/injection, schedule: Q01DX009 (ip), vehicle: Klucel (hydroxypropylcellulose) (HPC)): 107 % of control | T/C [11]: 110 % of control | T/C [12]: 100 % of control

C=C(CCCC)C(=O)OC
T/C [3]: 102 % of control | T/C [4]: 111 % of control | T/C (dose: 200.0 mg/kg/injection, schedule: Q01DX009 (ip), vehicle: saline with Tween-80): 108 % of control
